Experimental data taken from ChEMBL document CHEMBL1148556, “Synthesis and preliminary biological evaluation of (2S,1'R,2'S)- and (2S,1'S,2'R)-2-(2'-phosphonocyclopropyl)glycines, two novel conformationally constrained l-AP4 analogues” (Bioorg Med Chem Lett, 2006).

Assays:
[1] = molecular target: Metabotropic glutamate receptor 6 (Rattus norvegicus, UniProt P35349); assay: Activity at rat mGluR6 by measuring cAMP formation in CHO cells; format: functional, cell-based
[2] = molecular target: T1, Metabotropic glutamate receptor 4 (Rattus norvegicus, UniProt P31423); assay: Functional activity at rat mGluR4
T1 sequence (P31423 whole entry): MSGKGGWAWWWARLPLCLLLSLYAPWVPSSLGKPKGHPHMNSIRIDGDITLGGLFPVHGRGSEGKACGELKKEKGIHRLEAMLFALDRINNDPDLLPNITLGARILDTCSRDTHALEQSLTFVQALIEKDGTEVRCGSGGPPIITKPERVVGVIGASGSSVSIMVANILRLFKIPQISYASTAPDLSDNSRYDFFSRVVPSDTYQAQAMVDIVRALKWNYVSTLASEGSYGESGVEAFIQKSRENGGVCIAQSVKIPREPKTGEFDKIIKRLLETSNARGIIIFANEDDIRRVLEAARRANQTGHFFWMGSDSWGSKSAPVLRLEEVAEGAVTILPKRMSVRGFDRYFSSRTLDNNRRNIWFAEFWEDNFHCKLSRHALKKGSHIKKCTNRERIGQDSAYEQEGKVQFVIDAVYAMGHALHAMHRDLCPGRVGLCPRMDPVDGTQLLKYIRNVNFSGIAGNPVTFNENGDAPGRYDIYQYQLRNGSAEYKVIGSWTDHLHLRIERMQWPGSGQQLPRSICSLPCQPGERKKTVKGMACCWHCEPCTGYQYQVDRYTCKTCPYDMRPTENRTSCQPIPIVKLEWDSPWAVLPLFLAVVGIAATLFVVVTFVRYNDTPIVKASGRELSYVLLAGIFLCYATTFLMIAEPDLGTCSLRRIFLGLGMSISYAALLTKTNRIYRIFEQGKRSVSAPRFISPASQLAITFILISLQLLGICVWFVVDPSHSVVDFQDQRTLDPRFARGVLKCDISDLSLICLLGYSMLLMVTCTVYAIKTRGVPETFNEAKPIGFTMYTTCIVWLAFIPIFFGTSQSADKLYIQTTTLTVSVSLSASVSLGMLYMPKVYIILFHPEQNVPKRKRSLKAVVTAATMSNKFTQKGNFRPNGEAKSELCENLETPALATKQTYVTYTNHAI

[3] = molecular target: Metabotropic glutamate receptor 8 (Rattus norvegicus, UniProt P70579); assay: Displacement of [3H]LY341495 from rat mGluR8 expressed in BHK cells; format: cell-based
Metabotropic glutamate receptor 8, sequence (P70579 whole entry): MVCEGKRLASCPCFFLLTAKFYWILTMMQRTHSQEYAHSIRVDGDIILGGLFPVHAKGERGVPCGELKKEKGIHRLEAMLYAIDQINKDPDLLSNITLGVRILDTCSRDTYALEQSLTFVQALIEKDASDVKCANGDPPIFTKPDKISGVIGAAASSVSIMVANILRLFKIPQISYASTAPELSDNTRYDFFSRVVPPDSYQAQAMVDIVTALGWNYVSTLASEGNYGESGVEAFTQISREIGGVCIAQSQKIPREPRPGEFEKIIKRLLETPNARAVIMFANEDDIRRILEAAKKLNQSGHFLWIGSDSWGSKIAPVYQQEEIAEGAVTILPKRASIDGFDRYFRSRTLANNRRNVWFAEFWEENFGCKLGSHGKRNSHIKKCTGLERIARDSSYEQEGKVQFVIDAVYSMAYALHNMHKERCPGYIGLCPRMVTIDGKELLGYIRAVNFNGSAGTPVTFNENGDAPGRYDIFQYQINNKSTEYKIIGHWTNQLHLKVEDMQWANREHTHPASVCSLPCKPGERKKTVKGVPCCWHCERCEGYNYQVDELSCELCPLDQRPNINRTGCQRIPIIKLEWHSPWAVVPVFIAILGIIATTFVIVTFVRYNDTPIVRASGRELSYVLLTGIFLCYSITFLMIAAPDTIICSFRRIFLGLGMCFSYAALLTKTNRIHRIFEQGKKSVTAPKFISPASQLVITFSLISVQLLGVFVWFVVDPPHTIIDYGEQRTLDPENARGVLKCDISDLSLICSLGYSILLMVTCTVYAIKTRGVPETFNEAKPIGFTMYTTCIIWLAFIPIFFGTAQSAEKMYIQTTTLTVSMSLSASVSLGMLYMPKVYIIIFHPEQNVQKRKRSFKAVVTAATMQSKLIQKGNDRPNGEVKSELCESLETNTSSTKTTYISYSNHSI

[4] = molecular target: Metabotropic glutamate receptor 1 (Rattus norvegicus, UniProt P23385); assay: Activity at rat mGluR1 by measuring intracellular calcium concentration in CHO cells; format: functional, cell-based
[5] = molecular target: Metabotropic glutamate receptor 7 (Homo sapiens, UniProt Q14831); assay: Activity at human mGluR7 by measuring cAMP formation in BHK cells; format: functional, cell-based
Metabotropic glutamate receptor 7, sequence (Q14831 whole entry): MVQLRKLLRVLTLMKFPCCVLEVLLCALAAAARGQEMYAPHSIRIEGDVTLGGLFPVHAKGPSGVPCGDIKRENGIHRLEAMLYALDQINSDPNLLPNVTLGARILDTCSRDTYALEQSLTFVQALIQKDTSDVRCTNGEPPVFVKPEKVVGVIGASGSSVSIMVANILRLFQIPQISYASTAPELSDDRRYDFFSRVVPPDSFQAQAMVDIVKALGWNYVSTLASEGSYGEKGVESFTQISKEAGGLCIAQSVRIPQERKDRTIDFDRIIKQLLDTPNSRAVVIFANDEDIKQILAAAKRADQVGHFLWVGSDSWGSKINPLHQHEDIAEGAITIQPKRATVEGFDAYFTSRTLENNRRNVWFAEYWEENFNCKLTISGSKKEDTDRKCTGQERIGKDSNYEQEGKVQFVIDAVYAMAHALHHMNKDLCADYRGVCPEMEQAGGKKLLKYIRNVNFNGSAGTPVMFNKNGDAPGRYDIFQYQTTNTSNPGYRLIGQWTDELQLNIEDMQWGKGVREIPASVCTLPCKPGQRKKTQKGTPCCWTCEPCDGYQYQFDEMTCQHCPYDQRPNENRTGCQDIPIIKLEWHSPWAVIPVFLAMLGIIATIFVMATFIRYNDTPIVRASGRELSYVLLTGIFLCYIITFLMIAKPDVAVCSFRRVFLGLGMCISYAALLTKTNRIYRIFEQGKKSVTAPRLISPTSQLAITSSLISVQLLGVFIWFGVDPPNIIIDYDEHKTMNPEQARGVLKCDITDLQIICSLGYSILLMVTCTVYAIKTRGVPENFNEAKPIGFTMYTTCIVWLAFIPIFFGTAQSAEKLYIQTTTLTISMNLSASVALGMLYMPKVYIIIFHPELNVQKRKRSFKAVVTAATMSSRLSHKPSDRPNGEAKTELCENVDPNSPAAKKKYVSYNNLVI

[6] = molecular target: T1, Metabotropic glutamate receptor 4; assay: Displacement of [3H]L-AP4 from rat mGluR4 expressed in BHK cells; format: cell-based
[7] = molecular target: Metabotropic glutamate receptor 5 (Rattus norvegicus, UniProt P31424); assay: Activity at rat mGluR5 by measuring intracellular calcium concentration in CHO cells; format: functional, cell-based
[8] = molecular target: Metabotropic glutamate receptor 2 (Homo sapiens, UniProt Q14416); assay: Activity at human mGluR2 from BHK cells in [35S]GTP-gamma-S stimulation assay; format: functional, cell-based
Metabotropic glutamate receptor 2, sequence (Q14416 whole entry): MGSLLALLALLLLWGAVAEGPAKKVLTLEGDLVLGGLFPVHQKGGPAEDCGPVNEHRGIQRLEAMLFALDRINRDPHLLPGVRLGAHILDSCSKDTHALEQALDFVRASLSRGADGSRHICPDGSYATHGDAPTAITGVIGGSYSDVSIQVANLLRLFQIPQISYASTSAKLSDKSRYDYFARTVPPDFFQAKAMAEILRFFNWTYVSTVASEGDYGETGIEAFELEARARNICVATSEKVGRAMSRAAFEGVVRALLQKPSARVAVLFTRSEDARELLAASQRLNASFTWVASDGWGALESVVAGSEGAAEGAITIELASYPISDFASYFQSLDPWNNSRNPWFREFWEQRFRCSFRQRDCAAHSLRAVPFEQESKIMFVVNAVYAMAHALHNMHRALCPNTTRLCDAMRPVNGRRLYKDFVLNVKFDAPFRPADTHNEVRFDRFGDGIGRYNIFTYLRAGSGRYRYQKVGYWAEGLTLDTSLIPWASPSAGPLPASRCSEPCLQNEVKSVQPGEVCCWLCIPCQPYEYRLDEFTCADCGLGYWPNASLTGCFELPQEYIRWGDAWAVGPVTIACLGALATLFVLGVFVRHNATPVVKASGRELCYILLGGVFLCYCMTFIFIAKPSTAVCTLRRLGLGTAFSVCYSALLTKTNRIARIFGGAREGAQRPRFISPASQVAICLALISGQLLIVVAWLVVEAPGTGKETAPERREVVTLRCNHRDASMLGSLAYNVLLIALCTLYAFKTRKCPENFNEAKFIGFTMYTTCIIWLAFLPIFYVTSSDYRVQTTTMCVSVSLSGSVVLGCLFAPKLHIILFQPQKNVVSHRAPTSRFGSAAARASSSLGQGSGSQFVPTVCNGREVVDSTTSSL

Metabotropic glutamate receptor 6, sequence (P35349 whole entry): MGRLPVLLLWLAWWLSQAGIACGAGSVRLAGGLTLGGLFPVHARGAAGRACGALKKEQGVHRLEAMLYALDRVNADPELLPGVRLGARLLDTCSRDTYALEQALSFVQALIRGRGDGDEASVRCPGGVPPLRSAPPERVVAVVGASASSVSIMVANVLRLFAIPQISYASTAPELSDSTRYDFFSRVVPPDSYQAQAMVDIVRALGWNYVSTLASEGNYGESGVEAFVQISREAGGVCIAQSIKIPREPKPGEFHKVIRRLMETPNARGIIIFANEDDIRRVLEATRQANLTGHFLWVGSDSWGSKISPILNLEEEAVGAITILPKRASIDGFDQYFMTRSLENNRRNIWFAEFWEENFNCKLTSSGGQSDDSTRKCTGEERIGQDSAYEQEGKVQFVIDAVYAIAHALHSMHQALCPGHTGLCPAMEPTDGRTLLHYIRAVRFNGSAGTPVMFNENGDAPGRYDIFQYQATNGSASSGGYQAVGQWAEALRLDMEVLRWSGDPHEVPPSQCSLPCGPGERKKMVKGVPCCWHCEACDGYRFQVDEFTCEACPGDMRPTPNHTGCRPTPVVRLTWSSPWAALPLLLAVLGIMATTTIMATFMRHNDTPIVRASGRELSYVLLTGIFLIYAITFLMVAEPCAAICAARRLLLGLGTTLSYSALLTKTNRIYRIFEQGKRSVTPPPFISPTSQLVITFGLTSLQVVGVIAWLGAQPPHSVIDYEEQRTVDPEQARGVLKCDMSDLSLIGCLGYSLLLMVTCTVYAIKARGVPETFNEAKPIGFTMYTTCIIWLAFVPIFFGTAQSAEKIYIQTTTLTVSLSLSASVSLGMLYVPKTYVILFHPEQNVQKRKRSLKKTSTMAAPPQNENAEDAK

| SMILES | EC50 [1] [µM] | EC50 [2] [µM] | Ki [3] [µM] | EC50 [4] [µM] | EC50 [5] [µM] | Ki [6] [µM] | EC50 [7] [µM] | EC50 [8] [µM] |
| --- | --- | --- | --- | --- | --- | --- | --- | --- |
| N[C@H](C(=O)O)[C@H]1C[C@@H]1P(=O)(O)O | 13 | 9.4 | 63 | > 1000 | 700 | 7.4 | > 1000 | > 1000 |
| N[C@H](C(=O)O)[C@@H]1C[C@H]1P(=O)(O)O | 46 | 49 | 54 | > 1000 | > 1000 | 53 | > 1000 | > 1000 |
| N[C@@H](CCP(=O)(O)O)C(=O)O | 0.34 | 0.51 | 1.9 | > 1000 | 188 | 0.16 | > 1000 | > 1000 |
| N[C@@H](CCC(=O)O)C(=O)O [GLUTAMIC ACID] | 7.6 | 6.1 | 3.4 | – | > 1000 | 3.4 | – | – |
